Consider ten compounds from PubChem BioAssay (NCI).

SMILES strings stand for the structures.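 Compound exposure: 48 hours, 5 concentrations, 96-well plates. TGI: total growth inhibition.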

Among the test systems are DMS 114 small cell lung; HOP-18 NSCLC; ACHN renal; SNB-78 CNS; KM20L2 colon; SK-MEL-28 melanoma; DMS 273 small cell lung; RXF-631 renal; M19-MEL melanoma; DLD-1 colon; LXFL 529 NSCLC; XF 498 CNS; 786-0 renal.
Common to all, as to test: NCI anticancer screen, dose series, 48 h

`COC1=CC(=O)C2C(C1=O)C(c1ccc(OC)c(OC)c1)[C@H]2C` (stereo not given in full): the TGI in the assay with DMS 114 small cell lung was 42.3 µM; in the assay with HOP-18 NSCLC it was 35.1 µM; in the assay on ACHN renal, 33.4 µM; with SNB-78 CNS, more than 100 µM; in the assay on KM20L2 colon it was more than 100 µM; in the assay with SK-MEL-28 melanoma, 39.3 µM. In addition, the TGI with DMS 273 small cell lung stood at 60.3 µM; with RXF-631 renal, 32.7 µM; with M19-MEL melanoma, 42.1 µM; in the assay with DLD-1 colon it was 31.5 µM; in the assay with LXFL 529 NSCLC it was 33.3 µM; in the assay on XF 498 CNS, 29.9 µM. In the assay with 786-0 renal, this compound displayed a TGI of 31.9 µM.

On to `CC/C(SC)=[N+](\C)[O-]`, for which the TGI in the assay with DMS 114 small cell lung is more than 54.2 µM; in the assay with HOP-18 NSCLC, more than 100 µM; in the assay on ACHN renal, more than 100 µM; in the assay with SNB-78 CNS, more than 100 µM; in the assay with KM20L2 colon, more than 100 µM; with SK-MEL-28 melanoma, more than 100 µM. The TGI in the assay on RXF-631 renal is more than 100 µM; with M19-MEL melanoma, more than 100 µM; in the assay with DLD-1 colon, more than 69 µM; in the assay with LXFL 529 NSCLC, more than 100 µM; in the assay with XF 498 CNS it was more than 100 µM; in the assay with 786-0 renal, more than 100 µM.

Consider `CCN(CC)CCCCC1CCN(CC(=O)N2c3cc(Cl)ccc3NC(=O)CC2C)CC1` (stereo not given), for which the TGI in the assay on HOP-18 NSCLC, in the assay on ACHN renal, with KM20L2 colon, with SK-MEL-28 melanoma, in the assay on DMS 273 small cell lung and with M19-MEL melanoma was more than 100 µM in each case. The TGI in the assay with DLD-1 colon, with LXFL 529 NSCLC and in the assay with 786-0 renal was more than 100 µM in each case.

Regarding `CN1N=C2c3ccccc3CC[C@H]2C1c1cccc(O)c1` (stereo not given in full), the TGI in the assay on DMS 114 small cell lung, in the assay on ACHN renal, in the assay on KM20L2 colon, with SK-MEL-28 melanoma, with DMS 273 small cell lung and with M19-MEL melanoma was more than 100 µM each time. Moreover, the TGI in the assay with DLD-1 colon, in the assay on LXFL 529 NSCLC, in the assay on XF 498 CNS and in the assay with 786-0 renal was more than 100 µM each time.

In the case of `O=C1NC2C(CCO)CC=C[C@H]2c2cc3c(cc21)OCO3` (stereo not given in full), the TGI in the assay on DMS 114 small cell lung, in the assay with ACHN renal, in the assay with SNB-78 CNS, with KM20L2 colon, in the assay with SK-MEL-28 melanoma and in the assay with DMS 273 small cell lung was more than 100 µM in each case. The TGI in the assay with M19-MEL melanoma, with DLD-1 colon, in the assay with LXFL 529 NSCLC and in the assay on 786-0 renal was more than 100 µM in each case.

On to `C/C(=N/NC(N)=S)C(CN(C)C)C(C1=C(O)c2ccccc2OC1)c1ccccc1` (stereo not given), for which the TGI with DMS 114 small cell lung, with HOP-18 NSCLC, with ACHN renal, with SNB-78 CNS, with KM20L2 colon and in the assay on SK-MEL-28 melanoma was more than 100 µM in each case. Besides, the TGI in the assay on DMS 273 small cell lung, in the assay on M19-MEL melanoma, with DLD-1 colon, with LXFL 529 NSCLC, in the assay with XF 498 CNS and with 786-0 renal was more than 100 µM in each case.

Take `Nc1ncnc2c1ncn2C1CC(OC2CCCCO2)C(CO)O1` (stereo not given): the TGI in the assay on DMS 114 small cell lung, in the assay with HOP-18 NSCLC, in the assay on ACHN renal, in the assay with SNB-78 CNS, with KM20L2 colon and with SK-MEL-28 melanoma was more than 100 µM in each case. Moreover, the TGI in the assay on DMS 273 small cell lung, in the assay on M19-MEL melanoma, in the assay on DLD-1 colon, with LXFL 529 NSCLC, with XF 498 CNS and in the assay on 786-0 renal was more than 100 µM in each case.

As to `COc1ccc2c(c1)OC(c1ccccc1O)CC2=O` (stereo not given), the TGI is more than 100 µM in the assay on HOP-18 NSCLC; more than 100 µM in the assay on ACHN renal; 84.8 µM with SNB-78 CNS; more than 100 µM in the assay with KM20L2 colon; more than 100 µM in the assay on SK-MEL-28 melanoma; more than 100 µM in the assay on DLD-1 colon. The TGI in the assay on LXFL 529 NSCLC is 71.5 µM; with XF 498 CNS, more than 100 µM; in the assay with 786-0 renal, more than 100 µM.

With `COC(=O)N/N=C(/Cc1occc(=O)c1O)C(=O)Nc1ccc([N+](=O)[O-])cc1[N+](=O)[O-]`, the TGI in the assay with DMS 114 small cell lung, with HOP-18 NSCLC, in the assay on ACHN renal, with SNB-78 CNS, in the assay on KM20L2 colon and in the assay on SK-MEL-28 melanoma was more than 100 µM in each case. The TGI with DMS 273 small cell lung, with M19-MEL melanoma, in the assay with DLD-1 colon, with LXFL 529 NSCLC, in the assay with XF 498 CNS and in the assay on 786-0 renal was more than 100 µM each time.

Take `CCOC(=O)Nn1c(C)cc(C(=O)OC)c1C`: the TGI in the assay on DMS 114 small cell lung, with ACHN renal, with SNB-78 CNS, with KM20L2 colon, with SK-MEL-28 melanoma and in the assay on DMS 273 small cell lung was more than 100 µM each time. For the same compound, the TGI with M19-MEL melanoma, with DLD-1 colon, in the assay on LXFL 529 NSCLC, with XF 498 CNS and with 786-0 renal was more than 100 µM each time.
